How the values were obtained:
[1] = test system: OSR1 and SPAK phosphorylation; assay: Western blotting of OSR1 and SPAK phosphorylation in hippocampus; assay type: cell-based, mouse
Excerpt: To further investigate the impact of bilirubin on WNK1 kinase activity, we generated hippocampal neuron‐specific Wnk1 knockout mice. Given that conventional Wnk1 knockout mice are embryonically lethal, we employed the CRISPR/Cas9 method to create mice carrying the floxed Wnk1 gene. Then we crossed Thy1‐Cre mice with Wnk1^flox/flox mice to generate hippocampal neuron‐specific Wnk1 knockout mice. We examined the effects of bilirubin on the phosphorylation of WNK1 downstream targets, Ste20‐related proline alanine‐rich kinase (SPAK), and oxidative stress‐responsive kinase 1 (OSR1), in the hippocampus of Wnk1^flox/flox and Wnk1^flox/flox,Thy1‐Cre mice. Upon bilirubin treatment, phosphorylation of OSR1 and SPAK was elevated in the hippocampus of Wnk1^flox/flox mice. […] These findings indicate that the effect of bilirubin on OSR1 and SPAK phosphorylation is WNK1‐dependent (Figure 4B). To rule out the potential effects of osmolarity on the phosphorylation of WNK1, OSR1, and SPAK, we measured the osmolarity of different bilirubin concentrations.
Cells or tissues were lysed by grinding in RIPA buffer (cat. no. PC101; Epizyme Biotech) supplemented with a protease inhibitor cocktail (cat. no. 5872S; Cell Signaling Technology) at 4 °C. […] The total protein concentration was determined using the Pierce BCA Protein Assay Kit (cat. no. 23 225, Thermo Fisher Scientific). […]

[2] = test system: primary cultured hippocampal neurons; assay: MQAE intracellular chloride measurement in primary cultured hippocampal neurons; assay type: cell-based, mouse
Excerpt: Therefore, we hypothesized that bilirubin activation of WNK1 kinase activity might affect intracellular chloride levels. […] This was detected using the sensitive molecular probe N‐(Ethoxycarbonylmethyl)‐6‐Methoxyquinolinium Bromide (MQAE), as indicated by a reduction in MQAE fluorescence intensity (Figure 4C,E).^[ [32] ^]
To ascertain whether bilirubin regulates chloride ions through WNK1, we generated Wnk1 gene knockout primary cultured neurons. We achieved neuron‐specific deletion of Wnk1 in hippocampal neurons by transducing primary neurons isolated from Wnk1^flox/flox embryonic mice with a lentivirus expressing hSyn‐Cre‐EGFP.^[ [33], [34] ^] […] Intracellular chloride concentration is crucial for modulating inhibitory synaptic transmission and, consequently, neuronal excitability.
Since bilirubin‐induced activation of WNK1 kinase activity increases [Cl⁻]i in neurons, we sought to elucidate the downstream effector proteins of WNK1 that are involved in this process. Neuronal [Cl⁻]i is primarily regulated by the Cl⁻‐K⁺ symporter KCC2, with additional modulation by factors such as the Na⁺‐K⁺‐Cl⁻ co‐transporter NKCC1, GABAA receptors, and glycine receptors (GlyR), all of which contribute to [Cl⁻]i homeostasis.^[ [31] ^] To investigate the mechanism underlying bilirubin‐induced changes in [Cl⁻]i, we selectively targeted these proteins using pharmacological inhibitors (VU0463271 for KCC2, bumetanide for NKCC1, bicuculline for GABAA receptors, and strychnine for GlyR) and activated KCC2 using CLP257.^[ [35], [36] ^] […] The bilirubin‐induced effect on [Cl⁻]i was not observed in primary astrocytes (Figure S15A,B, Supporting Information) or the HEK 293T cell line (Figure S15C, Supporting Information), both of which lacked KCC2 expression (Figure S16A,B, Supporting Information), further confirming that the effects of bilirubin and WNK1 on [Cl⁻]i elevation are dependent on KCC2.
Intracellular chloride concentration ([Cl⁻]i) was measured using the MQAE fluorescent dye (Life Technologies) following established protocols (Zhang, Lee et al. 2015). […]

## C=CC1=C(C)/C(=C/c2[nH]c(Cc3[nH]c(/C=C4\NC(=O)C(C)=C4C=C)c(C)c3CCC(=O)O)c(CCC(=O)O)c2C)NC1=O [bilirubin, Bilirubin]
[1]; hippocampus of Wnk1flox/flox mice
  phosphorylation of OSR1 and SPAK: elevated
[1]; hippocampus of Wnk1flox/flox,Thy1-Cre mice
  phosphorylation of OSR1 and SPAK: minimal impact
[2]; Wnk1 knockout primary neurons (hSyn-Cre lentivirus)
  [Cl−]i levels after Wnk1 deletion: failed to increase
[2]; varying concentrations, 30 min, MQAE fluorescence
  intracellular chloride concentration: significant increase
